# Data published in patent publication US7880010B2, “Crystalline forms of a dimethylphenyl compound” (Theravance, Inc., priority 2006, dated 2011).
# Columns and labels:
# [1] = biological target: T1, hM2 receptor (Homo sapiens, UniProt P08172); assay: Blockade of agonist-mediated [35S]GTPγS binding (Assay B); type: biochemical; conditions: CHO-K1 cells expressing the hM2 receptor
# T1 construct: expressed in transfected cells; host or cells: CHO / CHO-K1
# T1 sequence (P08172 1-466): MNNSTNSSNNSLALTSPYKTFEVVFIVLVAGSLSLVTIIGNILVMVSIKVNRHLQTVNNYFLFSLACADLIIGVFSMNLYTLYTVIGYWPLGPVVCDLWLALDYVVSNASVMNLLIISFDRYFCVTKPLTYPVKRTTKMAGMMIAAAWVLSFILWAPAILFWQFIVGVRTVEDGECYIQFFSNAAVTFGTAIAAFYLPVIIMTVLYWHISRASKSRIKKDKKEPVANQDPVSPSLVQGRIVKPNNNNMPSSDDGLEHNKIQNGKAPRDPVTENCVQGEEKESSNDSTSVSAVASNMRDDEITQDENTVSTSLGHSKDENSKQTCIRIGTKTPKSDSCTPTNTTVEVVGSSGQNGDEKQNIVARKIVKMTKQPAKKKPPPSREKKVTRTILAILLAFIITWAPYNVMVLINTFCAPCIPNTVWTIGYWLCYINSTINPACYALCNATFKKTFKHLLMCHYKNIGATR
# Method: In this functional assay, the functional potency of a test compound as an antagonist of the hM2 receptor was determined by measuring the ability of the test compound to block oxotremorine-stimulated [^35S]GTPγS binding in CHO-K1 cells expressing the hM2 receptor.
# At the time of use, frozen membranes were thawed and then diluted in assay buffer with a final target tissue concentration of 5 to 10 μg protein per well. The membranes were briefly homogenized using a Polytron PT-2100 tissue disrupter and then added to the assay plates.
# The EC90 value (effective concentration for 90% maximal response) for stimulation of [^35S]GTPγS binding by the agonist oxotremorine was determined in each experiment.
# To determine the ability of a test compound to inhibit oxotremorine-stimulated [^35S]GTPγS binding, the following was added to each well of 96 well plates: 25 μL of assay buffer with [^35S]GTPγS (0.4 nM), 25 μL of oxotremorine(EC90) and GDP (3 uM), 25 μL of diluted test compound and 25 μL CHO cell membranes expressing the hM2 receptor. […] Microscint-20 scintillation liquid (50 μL) was added to each well, and each plate was sealed and radioactivity counted on a Topcounter (PerkinElmer). Data were analyzed by nonlinear regression analysis with the GraphPad Prism Software package (GraphPad Software, Inc., San Diego, Calif.) using the non-linear regression, one-site competition equation. […]
# [2] = biological target: T1, hM2 receptor; assay: Blockade of agonist-mediated inhibition of cAMP accumulation (Assay A); type: cell-based; conditions: CHO-K1 cells expressing the hM2 receptor
# Method: In this assay, the functional potency of a test compound as an antagonist for the hM2 receptor was determined by measuring the ability of the test compound to block oxotremorine-inhibition of forskolin-mediated cAMP accumulation in CHO-K1 cells expressing the hM2 receptor. cAMP assays were performed in a radioimmunoassay format using the Flashplate Adenylyl Cyclase Activation Assay System with ^125I-cAMP (NEN SMP004B, PerkinElmer Life Sciences Inc., Boston, Mass.), according to the manufacturer's instructions. Cells were rinsed once with dPBS and lifted with Trypsin-EDTA solution (0.05% trypsin/0.53 mM EDTA) as described in the Cell Culture and Membrane Preparation section above. The detached cells were washed twice by centrifugation at 650×g for five minutes in 50 mL dPBS. The cell pellet was then re-suspended in 10 mL dPBS, and the cells were counted with a Coulter Z1 Dual Particle Counter (Beckman Coulter, Fullerton, Calif.). […]
# Reactions were incubated for 10 minutes at 37° C. and stopped by addition of 100 μL ice-cold detection buffer. Plates were sealed, incubated overnight at room temperature and counted the next morning on a PerkinElmer TopCount liquid scintillation counter (PerkinElmer Inc., Wellesley, Mass.). The amount of cAMP produced (pmol/well) was calculated based on the counts observed for the samples and cAMP standards, as described in the manufacturer's user manual. […]
smiles,measurement,setting,value
"Cc1cc(NC(=O)CCN2CCC(OC(=O)Nc3ccccc3-c3ccccc3)CC2)c(C)cc1CNC[C@H](O)c1ccc(O)c(NC=O)c1 [compound of formula I, biphenyl-2-ylcarbamic acid 1-[2-(4-{[(R)-2-(3-formylamino-4-hydroxyphenyl)-2-hydroxyethylamino]methyl}-2,5-dimethylphenylcarbamoyl)ethyl]-piperidin-4-yl ester]",Kobs for blockade of oxotremorine-stimulated [35S]GTPγS binding,[1],less than 10 nM
same,Kobs for blockade of oxotremorine-inhibition of forskolin-mediated cAMP accumulation,[2],less than 10 nM
